Source: patent publication US8163803B2 (Fundação Oswaldo Cruz—FIOCRUZ, priority 2004, dated 2012)

Tests used:
patients = settings: cited from earlier work
[1] = test system: cutaneous sites of the dorsal region of adult Wistar rats; assay: Local anesthetic activity, intradermal injection in dorsal skin, response to mechanical stimulation; format: in vivo; settings: for time of anesthesia compared with lidocaine: doses from 0.5 to 4 μMol/site
Protocol: Female and male Wistar rats, weighing between 200 and 250 g, they came from Oswaldo Cruz Foundation's Center of Laboratory Animal Raising were used. The procedures involving the animals were examined and approved by Oswaldo Cruz Foundation's Committee of Animal Ethics (CEUA-FIOCRUZ, License number 00085-02). After brief anesthesia by exposure to the atmosphere enriched with […] animals were trichotomized dorsal region, where the […] injections with substances for test were performed; doses varied from 0.5 to 4 μMol/site, and vehicule (NaCl 0.9%) (negative control), the final volume was 50 μl. Each animal took six injections and four animals were used for each tested substance. The application points were mechanically estimulated with a tweezer in order to evaluate the integrity of sensitiveness. The site was considered not to be anesthesized whenever after the mechanical stimulation it was observed a local retraction of the skin, according to what had been previously reported. The evaluations began 10 minutes after intradermal injections had been taken, which continued every five minutes until it was obtained the cutaneous retraction response. The values (average±standard error of the mean, SEM) were expressed in terms of “Time of Anesthesia” in minutes.

[2] = test system: isolated ileum of an experimental animal; assay: Anaphylactic contraction of isolated ileum induced by antigen (ovoalbumin); settings: antigen (10 μg/ml), average ±SEM, at least 3 animals; read-out: Stimulation with antigen IC50
Protocol: (§1) Female and male experimental animals were used, weighing between 300 and 400 g, they came from Oswaldo Cruz Foundation's Center of Laboratory Animal Raising. The procedures involving the animals were examined and approved by Oswaldo Cruz Foundation's Committee of Animal Ethics (CEUA-FIOCRUZ, Licenca no. 00085-02). The animals were sensitized through a subcutanous injection with a mixture of 50 μg ovoalbumin and 5 mg Al(OH)3. From fourteen to thirty days after the sensitization, the experimental, animal was sacrificed in a chamber of carbonic gas to have its abdomen open and the location of the ileocecal valve. At this point, the intestine was sectioned and a segment of the small intestine, about 20 cm (equivalent to the ileum) was carefully removed and internally washed with a warmed solution (37° C.) of Tyrode (Composition in mM) (NaCl 137; KCl 2.7; NaH2PO4 0.42; NaHCO3 11.9; MgCl2 0.5; CaCl2 1.8; glucose 5.6) to remove the fecal content. […].
(§2) About 3-cm ileum fragments were vertically mounted in 10 ml glass cuvettes, immersed in Tyrode's solution at 37° C., aerated with carbogen (O2, 95% and CO2, 5%) and supplemented with atropine according to the standard procedure. The tissue had one of its ends tied to a rod while the other end was coupled with a transductor after the transference from the rod to the cuvette. The contractions were isotonically registered (basal tension of 1 g) with the support of a transductor of displacement-force connected to a computerized system to capture data. After a 30 minute period of balance, each segment was repeatedly stimulated by histamine (1 μM) until response stabilization. To induce anaphylatic contraction, ileum segments from sensitized experimental animals were stimulated by ovoalbumin (10 μg/ml). […]. The results were presented as a percentage of inhibition calculated in relation to the contractive effect obtained from stimulated and non-treated preparations.
(§3) Concentration-response data were adjusted through non-linear regression curves with the assistence of a graphics software (GraphPad Prism, USA). The concentration of an antagonist needed to inhibit the contractive response to inhibit the contractive response after stimulation by histamine or antigen at 50% (IC50) was used to compare the anti-spasmodic potency. The values expressed as an average ± standard error of the mean and statistically analysed through the test of analysis variance (ANOVA), followed by the Newman-Keuls-Student test.

[3] = test system: isolated ileum of an experimental animal; assay: Contraction of isolated ileum induced by histamine; settings: histamine (5 μM), average ±SEM, at least 3 animals; read-out: Stimulation with histamine IC50
Protocol: as §1, §2, §3

[4] = test system: experimental animal trachea; assay: Relaxation of trachea pre-contracted by anaphylactic stimulation (ovoalbumin); settings: pre-contracted with ovoalbumin (20 μg/ml), average±SEM, at least 3 animals; read-out: IC50, concentration necessary to relax in 50% the anaphylatic spasm of trachea
Protocol: Female and male experimental animals were used, weighing between 300 and 400 g, they came from Oswaldo Cruz Foundation's Center of Laboratory Animal Raising. The procedures involving the animals were examined and approved by Oswaldo Cruz Foundation's Committee of Animal Ethics (CEUA-FIOCRUZ, License number 00085-02). The animals were sensitized through a subcutaneous injection with a mixture of 50 μg ovoalbumin and 5 mg Al(OH)3. Fourteen to thirty days after the sensitization, the experimental animal was sacrificed in a chamber of carbonic gas to have its trachea removed. The trachea was transferred to a Petri dish containing Krebs solution (composition in mM) (NaCl-119; […] NaHCO3-25; […] The total segment was divided into fragments of about 3 to 4 rings that were sectioned at the extreme ending, the muscular part of the trachea. Each fragment had one of its ends tied to a rod while the other end was connected to an isometric transductor (U Basile, Italy) after the transference from the rod to a 10 ml glass cuvette. […] The contractions were registered with the […] of a computerized system of data capture (Letica, Spain). […] The results were shown as a percentage of relaxation in relation to the plateau of the anaphylatic pre-contraction. Concentration-response data were adjusted through non-linear regression curves with the […] of a graphics software (GraphPad Prism, USA). […] The values were expressed as an average± standard error of the mean and statistically analysed through the test of analysis variance (ANOVA), followed by the Newman-Keuls-Student test.

[5] = test system: dorsal subcutaneous tissue of rats; assay: Anaphylactic release of histamine by fragments of dorsal subcutaneous tissue; parameters: species or system Wistar rats; settings: for IC50: 60 min pre-treatment, read-out: IC50, inhibition of histamine release caused by anaphylatic stimulus
Protocol: Female and male Wistar rats were used, weighing between 180 and 200 g, they came from Oswaldo Cruz Foundation's Center of Laboratory Animal Raising. The procedures involving the animals were examined and approved by Oswaldo Cruz Foundation's Committee of Animal Ethics (CEUA-FIOCRUZ, Port. 00085-02). The rats were sensitized with a subcutaneous injection containing a mixture of 50 μg ovalbumina plus 5 mg Al(OH)3. Fourteen days after the sensitization the animals were sacrificed in a chamber of CO2, to have their dorsal hypodermis removed which was fragmented into smaller segments of about 3 mm in a Petri dish containing PBS. The fragments were individually transferred to a dish with 48 pools containing 500 μl of Hanks with Ca^++ and Mg^++.
Five experimental groups were studied in quadruplicates:
I. Saline group, negative control, pools where the tissue was neither treated nor stimulated;
II. Ovoalbumin group, positive control, pools where the tissue was not treated but it was stimulated by ovoalbumin (300 μg/ml);
III. JM24-1 group, pools where the tissue was previously treated with JM24-1 before the stimulation with ovoalbumin (300 μg/ml);
IV. JM25-1 group, pools where the tissue was previously treated with JM25-1 before the stimulation with ovoalbumin (300 μg/ml);
V. JMF2-1 group, pools where the tissue was previously treated with JMF2-1 before the stimulation with ovoalbumin (300 μg/ml).
Treated and non-treated pools were kept at 37° C. in a metabolic incubator (atmosphere containing 95% O2 and 5% CO2) for 60 minutes before the antigenic challenge. After the addition of ovoalbumin (300 μg/ml) all the pools were incubated again in a metabolic oven for more than 60 minutes. After removal of tissue for drying and weighing, the culture medium was collected and acidified with perchloric acid 0.4 N being, after centrifugation 150×g for 10 min. stocked at −20° C. until the moment of fluorimetric quantifying of histamine, according to the previous work. The values were shown like nanograms of released histamine by mg of tissue (dry weight).

[6] = test system: Na^+ currents in GH3 cells; assay: Tonic block of Na+ currents in GH3 cells, whole cell patch clamp; format: cell-based, Rat
Protocol: Ion channel currents were recorded by means of a patch clamp technique. The cells cultured on the cover glass were placed in a chamber fixed to a microscope stage and continuously perfused with extracellular Saline (A) solution (in mM); 150 NaCl, 5 KCl, 1 MgCl2, 0.01 CaCl2, 1 EGTA, 10 HEPES, 2 BaCl2, 0.1 CdCl2, pH 7.4 at room temperature (22-25° C.) adjusted with NaOH. The cells were observed using phase contrast mode under an inverted microscope (Axiovert 100, Carl Zeiss, Oberkochem, D Germany). Tight-seal (>10 GΩ) whole cell voltage-clamp recordings were performed with an Axopatch-1D amplifier (Axon Instruments, San Mateo, Calif.). […] Fifteen minutes after rupture of the patch membrane, we started to record ion channel currents. Pulse protocols and data acquisition were controlled by Digidata 1320 interface (Axon Instruments, Palo Alto, Calif.), and acquired on a personal computer using Clampex 9 software. The Na^+ current recordings were filtered at 1 kHz and sampled at 8 kHz. About 26% of series resistance was electronically compensated. Drugs were applied to the recording chamber by gravity. Perfusion rate was maintained at 0.8-1.1 ml/min and bath volume was of 50 μl. […] Voltage-gated Na^+ currents were recorded from these cells in the presence or absence of treatment.

[7] = test system: sensitized experimental animals; assay: Pulmonary eosinophil infiltrate after ovoalbumin aerosol challenge, bronchoalveolar lavage count; format: in vivo; settings: 5% aerosol, 30 min, with ovoalbumin 1% plus 3 aerosolizations every 3 h; lavage 24 h after challenge
Protocol: The animals were sensitized through a cutaneous injection of a mixture with 50 μg ovoalbumin and 5 mg Al(OH)3, and challenged with ovoalbumin (1%) aerosol for 30 min 14 days afterwards, according to what was previously described. In order to avoid death of animals by anaphylatic asphyxia, all of them were treated intraperitonially with the anti-histaminic difenidramine (30 mg/kg) 30 minutes before being challenged.
Bronchoalveolar Lavage and Eosinophils Counting
All the animals were anesthesized terminally through an intraperitonial injection of pentobarbital (200 mg/kg) 24 h after the antigenic challenge, to wash the bronchoalveolar space according to the techniques previously described. Total leukocyte count were done after dilution of bronchoalveolar lavage samples in Turk liquid and counting in the Neubauer chamber with the assistance of direct-light microscopy. The differential eosinophil count was done also under direct-light microscopy, after centrifugation of samples of the lavage as well as its exposure to specific dyestuff (May-Grunwald-Giemsa dye).
The averages± standard error of the mean of the groups investigated were analyzed based on statistics through the test of variance analysis (ANOVA), followed by the Newman-Keuls-Student test.
Values, expressed in terms of “number of eosinophils×10^6/lavage” are presented as average±SEM in at least 7 animals. In the negative control group, animals previously sensitized were artificially-challenged through exposure to sterile saline (NaCl, 0.9%) aerosol. […] “*” represents the difference statistically significant (P<0.05), when the group treated and the positive control group were compared.

Swiss 44 mice = assay: Convulsivant activity after intraperitoneal injection; format: in vivo; settings: mouse, in vivo, ip
Protocol: Female and male Swiss 44 mice were used, weighing between 25 and 30 g, they came from Oswaldo Cruz Foundation's Center of Laboratory Animal Raising. The procedures involving the animals were examined and approved by Oswaldo Cruz Foundation's Committee of Animal Ethics (CEUA-FIOCRUZ, Act 00085-02). […] For each molecule, the necessary dose to induce a convulsive clinical Figure in 50% of the animals (DE50) was determined by linear regressive curves interpoled (GraphPad Prim, version 3.03).

SMILES	attenuation of bronchospasm by histamine (patients)	time of anesthesia compared with lidocaine [1]	IC50 [2]	IC50 [3]	IC50 [4]	inhibition of anaphylactic histamine release, result in words ([5]; ovoalbumin (300 μg/ml))	IC50 ([5]; ovoalbumin (300 μg/ml))	Time of Anesthesia ([1]; 4 μMol/site intradermal, n=4, average±SEM)	IC50 ([6]; GH3 cells, holding potential −80 mV to +60 mV step pulse, read-out: IC50, blockade of Na+ currents)	50% inhibitory concentration, times higher than lidocaine ([6]; ratio to lidocaine IC50)	blocking the accumulation of eosinophils in the bronchoalveolar area [7]	times more potent than lidocaine, histamine release ([5]; ratio to lidocaine)	DE50, dose to induce convulsion in 50% of the animals (Swiss 44 mice)
CCCCOc1ccc(C(=O)CCN2CCCCC2)cc1 [dyclonine]	ineffective	–	–	–	–	–	–	–	–	–	–	–	–
CCN(CC)CC(=O)Nc1cc(C)ccc1C [JM25-1, 2-dyethylamine-2′,5′-acetoxylidide]	–	significantly inferior	120 ± 10 µM	140 ± 20 µM	130 ± 20 µM	concentrations comparable to that of lidocaine	8.35 µM	–	–	–	–	–	–
CCN(CC)CC(=O)Nc1ccccc1C(F)(F)F [JMF2-1, 2-dyethylamine-2-trifluormetilacetotoluidide]	–	significantly inferior	–	100 ± 10 µM	–	–	0.16 µM	28 ± 1 min	25400 µM	169 times	equipotent to lidocaine	about 29 times	305 mg/kg
